# Measurements: patent US20260262643A1, “HERBICIDAL BENZOXAZINES” (FMC CORPORATION, priority 2022, published 2026)
# Experiments:
# oat, wild [1] = test: Test A postemergence; format: in vivo, Avena fatua
# Outline: (§1)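 Seeds in loam–sand blend received a directed preemergence soil spray of compound in non-phytotoxic solvent with surfactant; postemergence plants (2–10 cm, one- to two-leaf stage) were sprayed with the same formulation. After 10 days in greenhouse, injury was rated visually versus untreated controls, 0 (no effect) to 100 (complete control).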
# foxtail, giant [2] = test: Test A preemergence; format: in vivo, Setaria faberi
# Outline: as §1
# corn [3] = test: Test A postemergence; format: in vivo, Zea mays
# Outline: as §1
# foxtail, giant [4] = test: Test A postemergence; format: in vivo, Setaria faberi
# Outline: as §1
# ragweed [5] = test: Test A preemergence; format: in vivo, Ambrosia artemisiifolia
# Outline: as §1
# horseweed = test: Test A postemergence; format: in vivo, Erigeron canadensis; conditions: postemergence, 10 days
# Outline: as §1
# ryegrass, Italian [6] = test: Test A preemergence; format: in vivo, Lolium multiflorum
# Outline: as §1
# goosegrass [7] = test: Test A postemergence; format: in vivo, Eleusine indica
# Outline: as §1
# ryegrass, Italian [8] = test: Test A postemergence; format: in vivo, Lolium multiflorum
# Outline: as §1
# kochia [9] = test: Test A preemergence; format: in vivo, Bassia scoparia
# Outline: as §1
# ragweed [10] = test: Test A postemergence; format: in vivo, Ambrosia artemisiifolia
# Outline: as §1
# wheat [11] = test: Test A postemergence; format: in vivo, Triticum aestivum
# Outline: as §1
# oat, wild [12] = test: Test A preemergence; format: in vivo, Avena fatua
# Outline: as §1
# barnyardgrass = test: Test B flooded paddy test; format: in vivo, Echinochloa crus-galli; conditions: 250 g ai/ha, Flood, 13 days, 0 to 100 scale (0 no effect, 100 complete control)
# Outline: (§2)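 Compound is introduced into paddy water covering soil by 3 cm, treating plants that have reached two leaves. Pots are kept flooded at that depth under greenhouse conditions. Assessment at 13 days gives a 0–100 visual control score.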
# pigweed, palmer [13] = test: Test A postemergence; format: in vivo, Amaranthus palmeri
# Outline: as §1
# corn [14] = test: Test A preemergence; format: in vivo, Zea mays
# Outline: as §1
# goosegrass [15] = test: Test A preemergence; format: in vivo, Eleusine indica
# Outline: as §1
# rice = test: Test B flooded paddy test; format: in vivo, Oryza sativa; conditions: 250 g ai/ha, Flood, 13 days, 0 to 100 scale (0 no effect, 100 complete control)
# Outline: as §2
# pigweed, palmer [16] = test: Test A preemergence; format: in vivo, Amaranthus palmeri
# Outline: as §1
# soybean [17] = test: Test A postemergence; format: in vivo, Glycine max
# Outline: as §1
# ducksalad = test: Test B flooded paddy test; format: in vivo, Heteranthera limosa; conditions: 250 g ai/ha, Flood, 13 days, 0 to 100 scale (0 no effect, 100 complete control)
# Outline: as §2
# blackgrass [18] = test: Test A preemergence; format: in vivo, Alopecurus myosuroides
# Outline: as §1
# blackgrass [19] = test: Test A postemergence; format: in vivo, Alopecurus myosuroides
# Outline: as §1
# wheat [20] = test: Test A preemergence; format: in vivo, Triticum aestivum
# Outline: as §1
# kochia [21] = test: Test A postemergence; format: in vivo, Bassia scoparia
# Outline: as §1
# sedge, umbrella = test: Test B flooded paddy test; format: in vivo, Cyperus difformis; conditions: 250 g ai/ha, Flood, 13 days, 0 to 100 scale (0 no effect, 100 complete control)
# Outline: as §2
# soybean [22] = test: Test A preemergence; format: in vivo, Glycine max
# Outline: as §1
# galium = test: Test A postemergence; format: in vivo, Galium aparine
# Outline: as §1
# [23] = 125 g ai/ha, postemergence, 10 days, 0 to 100 scale, 0 no effect, 100 complete control
# [24] = 500 g ai/ha, postemergence, 10 days, visual injury, 0 to 100 scale (0 no effect, 100 complete control)
# [25] = 125 g ai/ha, visual injury after 10 days, 0 to 100 scale, 0 is no effect, 100 is complete control
# [26] = 500 g ai/ha, 0 to 100 scale (0 no effect, 100 complete control), 10 days
# [27] = 125 g ai/ha, postemergence, 10 days, visual injury, 0 to 100 scale (0 no effect, 100 complete control)
# [28] = 500 g ai/ha, Postemergence, 0 to 100 scale
compound,measurement,setting,value
COc1ccc(-n2cnc(C)n2)cc1C(=O)N1C[C@H](C)Oc2c(Cl)cccc21 [Compound 89],"Oat, Wild plant response rating","oat, wild [1]; [23]",80
same,"Plant response rating, Oat, Wild","oat, wild [1]; [24]",90
same,"Plant response rating, Foxtail, Giant","foxtail, giant [2]; [25]",100
same,"Plant response rating, Foxtail, Giant","foxtail, giant [2]; [26]",100
same,Corn plant response rating,corn [3]; [23],70
same,"Plant response rating, Corn",corn [3]; [24],70
same,"Foxtail, Giant plant response rating","foxtail, giant [4]; [23]",90
same,"Plant response rating, Foxtail, Giant","foxtail, giant [4]; [24]",100
same,"Plant response rating, Ragweed",ragweed [5]; [25],40
same,"Plant response rating, Ragweed",ragweed [5]; [26],90
same,Horseweed plant response rating,"horseweed; 125 g ai/ha, 0 to 100 scale, 0 no effect, 100 complete control",20
same,"Plant response rating, Horseweed","horseweed; 500 g ai/ha, visual injury, 0 to 100 scale (0 no effect, 100 complete control)",40
same,"Plant response rating, Ryegrass, Italian","ryegrass, Italian [6]; [25]",90
same,"Plant response rating, Ryegrass, Italian","ryegrass, Italian [6]; [26]",100
same,Goosegrass plant response rating,goosegrass [7]; [23],90
same,"Plant response rating, Goosegrass",goosegrass [7]; [24],100
same,"Ryegrass, Italian plant response rating","ryegrass, Italian [8]; [23]",100
same,"Plant response rating, Ryegrass, Italian","ryegrass, Italian [8]; [24]",100
same,"Plant response rating, Kochia",kochia [9]; [25],70
same,"Plant response rating, Kochia",kochia [9]; [26],100
same,Ragweed plant response rating,ragweed [10]; [23],60
same,"Plant response rating, Ragweed",ragweed [10]; [24],80
same,Wheat plant response rating,wheat [11]; [23],50
same,"Plant response rating, Wheat",wheat [11]; [24],50
same,"Plant response rating, Oat, Wild","oat, wild [12]; [25]",70
same,"Plant response rating, Oat, Wild","oat, wild [12]; [26]",90
same,"Plant response rating, Barnyardgrass",barnyardgrass,60
same,"Pigweed, Palmer plant response rating","pigweed, palmer [13]; [23]",70
same,"Plant response rating, Pigweed, Palmer","pigweed, palmer [13]; [24]",100
same,"Plant response rating, Corn",corn [14]; [25],20
same,"Plant response rating, Corn",corn [14]; [26],60
same,"Plant response rating, Goosegrass",goosegrass [15]; [25],100
same,"Plant response rating, Goosegrass",goosegrass [15]; [26],100
same,"Plant response rating, Rice",rice,15
same,"Plant response rating, Pigweed, Palmer","pigweed, palmer [16]; [25]",90
same,"Plant response rating, Pigweed, Palmer","pigweed, palmer [16]; [26]",100
same,Soybean plant response rating,soybean [17]; [23],100
same,"Plant response rating, Soybean",soybean [17]; [24],100
same,"Plant response rating, Ducksalad",ducksalad,100
same,"Plant response rating, Blackgrass",blackgrass [18]; [25],70
same,"Plant response rating, Blackgrass",blackgrass [18]; [26],90
same,Blackgrass plant response rating,blackgrass [19]; [23],70
same,"Plant response rating, Blackgrass",blackgrass [19]; [24],80
same,"Plant response rating, Wheat",wheat [20]; [25],20
same,"Plant response rating, Wheat",wheat [20]; [26],60
same,Kochia plant response rating,kochia [21]; [23],70
same,"Plant response rating, Kochia",kochia [21]; [24],90
same,"Plant response rating, Sedge, Umbrella","sedge, umbrella",100
same,"Plant response rating, Soybean",soybean [22]; [25],100
same,"Plant response rating, Soybean",soybean [22]; [26],100
Cc1cc(F)cc2c1OC(C)CN2C(=O)c1cccc(-n2cncn2)c1 (stereo not shown) [Compound 44],"Plant response rating, Oat, Wild","oat, wild [1]; [27]",0
same,"Plant response rating, Oat, Wild","oat, wild [1]; [28]",80
same,"Plant response rating, Foxtail, Giant","foxtail, giant [2]; [25]",70
same,"Plant response rating, Foxtail, Giant","foxtail, giant [2]; [26]",100
same,"Plant response rating, Corn",corn [3]; [27],30
same,"Plant response rating, Corn",corn [3]; [28],70
same,"Plant response rating, Foxtail, Giant","foxtail, giant [4]; [27]",40
same,"Plant response rating, Foxtail, Giant","foxtail, giant [4]; [28]",90
same,"Plant response rating, Ragweed",ragweed [5]; [25],0
same,"Plant response rating, Ragweed",ragweed [5]; [26],0
same,"Plant response rating, Ryegrass, Italian","ryegrass, Italian [6]; [25]",80
same,"Plant response rating, Ryegrass, Italian","ryegrass, Italian [6]; [26]",100
same,"Plant response rating, Goosegrass",goosegrass [7]; [27],30
same,"Plant response rating, Goosegrass",goosegrass [7]; [28],70
same,"Plant response rating, Galium",galium; [27],50
same,"Plant response rating, Galium",galium; [28],70
same,"Plant response rating, Ryegrass, Italian","ryegrass, Italian [8]; [27]",50
same,"Plant response rating, Ryegrass, Italian","ryegrass, Italian [8]; [28]",80
same,"Plant response rating, Kochia",kochia [9]; [25],0
same,"Plant response rating, Kochia",kochia [9]; [26],20
same,"Plant response rating, Ragweed",ragweed [10]; [27],0
same,"Plant response rating, Ragweed",ragweed [10]; [28],0
same,"Plant response rating, Wheat",wheat [11]; [27],30
same,"Plant response rating, Wheat",wheat [11]; [28],80
same,"Plant response rating, Oat, Wild","oat, wild [12]; [25]",10
same,"Plant response rating, Oat, Wild","oat, wild [12]; [26]",50
same,"Plant response rating, Barnyardgrass",barnyardgrass,0
same,"Plant response rating, Pigweed, Palmer","pigweed, palmer [13]; [27]",30
same,"Plant response rating, Pigweed, Palmer","pigweed, palmer [13]; [28]",10
same,"Plant response rating, Corn",corn [14]; [25],10
same,"Plant response rating, Corn",corn [14]; [26],30
same,"Plant response rating, Goosegrass",goosegrass [15]; [25],90
same,"Plant response rating, Goosegrass",goosegrass [15]; [26],100
same,"Plant response rating, Rice",rice,0
same,"Plant response rating, Pigweed, Palmer","pigweed, palmer [16]; [25]",10
same,"Plant response rating, Pigweed, Palmer","pigweed, palmer [16]; [26]",20
same,"Plant response rating, Soybean",soybean [17]; [27],100
same,"Plant response rating, Soybean",soybean [17]; [28],100
same,"Plant response rating, Ducksalad",ducksalad,0
same,"Plant response rating, Blackgrass",blackgrass [18]; [25],10
same,"Plant response rating, Blackgrass",blackgrass [18]; [26],80
same,"Plant response rating, Blackgrass",blackgrass [19]; [27],30
same,"Plant response rating, Blackgrass",blackgrass [19]; [28],60
same,"Plant response rating, Wheat",wheat [20]; [25],0
same,"Plant response rating, Wheat",wheat [20]; [26],40
same,"Plant response rating, Kochia",kochia [21]; [27],10
same,"Plant response rating, Kochia",kochia [21]; [28],20
same,"Plant response rating, Sedge, Umbrella","sedge, umbrella",0
same,"Plant response rating, Soybean",soybean [22]; [25],40
same,"Plant response rating, Soybean",soybean [22]; [26],70
